In US7816389B2, “Organic compounds” (Nabriva Therapeutics Forschungs GmbH, priority 2006, dated 2010):
Values after ≈ are worked out from the molar mass of the structure shown.

Legend:
Format in all cases: cell-based
[1] = system: Enterococcus faecalis ATCC51299 B5; assay: MIC determination according to CLSI; conditions: ATCC51299, strain B5
From the text: (§1) For example, the compounds of the present invention show antimicrobial, e.g. antibacterial, activity against gram positive bacteria, such as coagulase-positive and coagulase-negative Staphylococci, e.g. Staphylococcus aureus, Styphylococcus epidermis, Staphylococcus haemolyticus, Streptococci, e.g. Streptococcus pyogenes, Streptococcus pneumoniae, Streptococcus agalacticae, Enterococci, e.g. Enterococcus faecium and Moraxellaceae, e.g. Moraxella catarrhalis, Pasteurellaceae, e.g. Haemophilus influenzae, as well as against Mycoplasmactaceae, Chlamydiaceae, e.g. Chlamydia trachomatis, Chlamydia pneumoniae and obligatory anaerobes, e.g. Bacteroides fragilis, Clostridium difficile; in vitro in the Agar Dilution Test or Microdilution Test according to the Climical and Laboratory Standards Institute (CLSI, former National Commitee for Clinical Laboratory Standards (NCCLS) 2006, Document M7-A7 Vol. 26, No. 2: “Methods for dilution Antimicrobial Susceptibility Tests for Bacteria that Grow Aerobically—Seventh Edition, Approved Standard”; and in the in vitro determination of the antibacterial activity against anaerobic bacteria according to National Committee for Clinical Laboratory Standards (NCCLS) VOL. 24, No. 2, M11-A5, Methods for Antimicrobal Susceptibility Testing of Anaerobic Bacteria; Approved Standard; Sixth Edition (2004) and in vivo in the septicaemic mouse model against Staphylococcus aureus.
(§2) The antibacterial activity expressed as minimal inhibitory concentration (MIC) was determined according to the approved standard reference recommendations of CLSI (former NCCLS).

[2] = system: Escherichia coli ATCC25922 B1; assay: MIC determination according to CLSI; conditions: ATCC25922, strain B1
From the text: as §1, §2

[3] = system: Staphylococcus aureus (MSSA) ATCC10390 B6; assay: MIC determination according to CLSI; conditions: ATCC10390, strain B6
From the text: as §1, §2

[4] = system: Staphylococcus aureus (MSSA) ATCC29213 B7; assay: MIC determination according to CLSI; conditions: ATCC29213, strain B7
From the text: as §1, §2

[5] = system: Streptococcus pneumoniae ATCC49619 B11; assay: MIC determination according to CLSI; conditions: ATCC49619, strain B11
From the text: as §1, §2

[6] = system: Enterococcus faecalis ATCC29212 B4; assay: MIC determination according to CLSI; conditions: ATCC29212, strain B4
From the text: as §1, §2

[7] = system: Moraxella catarrhalis ATCC43618 B407; assay: MIC determination according to CLSI; conditions: ATCC43618, strain B407
From the text: as §1, §2

[8] = system: Staphylococcus aureus, Enterococcus faecalis, Streptococcus pneumoniae, Moraxelia catarrhalis and Escherichia coli; assay: MIC determination according to CLSI, panel of pathogens
Procedure: as §2

With `C=C[C@]1(C)C[C@@H](OC(=O)CSc2cccc(CO)c2)[C@]2(C)C(C)CCC3(CCC(=O)C32)[C@@H](C)[C@@H]1O` (stereo partly shown) [Example 1, 14-O-[(3-Hydroxymethyl-phenylsulfanyl)-acetyl]-mutilin] the MIC [1] was 6.4 µg/mL (≈ 12.8 µM), the MIC [2] was 12.8 µg/mL (≈ 25.6 µM) and the MIC [3] was ≤ 0.0125 µg/mL. For the same molecule, the MIC [4] was ≤ 0.0125 µg/mL, the MIC [5] was 0.01 µg/mL (≈ 0.02 µM) and the MIC [6] was 6.4 µg/mL (≈ 12.8 µM). The MIC [7] was ≤ 0.0125 µg/mL, the “antibacterial activity (in vitro)” value ([8]; against at least one of the clinical relevant bacterial pathogens) was “very good activity” and the “factor by which MICs are lower than the MICs of Example 2” value ([8]; against at least one of the strains shown in Table 1) was ≥ 2.

In the case of `C=C[C@]1(C)C[C@@H](OC(=O)CSc2ccc(C)cc2)[C@]2(C)C(C)CCC3(CCC(=O)C32)[C@@H](C)[C@@H]1O` (stereo partly shown) [Example 2, 14-O-[(4-Methyl-phenylsulfanyl)-acetyl]-mutilin, reference compound], the MIC [1] is reported as > 25.6 µg/mL, the MIC [2] is reported as > 25.6 µg/mL and the MIC [3] is reported as 0.025 µg/mL (≈ 0.0516 µM). The MIC [4] was 0.025 µg/mL (≈ 0.0516 µM), the MIC [5] was 0.16 µg/mL (≈ 0.33 µM) and the MIC [6] was > 25.6 µg/mL. The MIC [7] was ≤ 0.0125 µg/mL.
